Where two headings read alike, the source gives them in different places.
Experiments:
HBV = experiment: Determination of HBV DNA from the supernatants of HepAD38 cells (anti-HBV activity); type: cell-based, hepatitis B virus; details: HBV DNA in HepAD38 supernatant, day 6, qPCR, read-out: Cell Activity
Outline: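 EC50 derived by non-linear regression of relative HBV DNA copy numbers, measured by qPCR (plasmid standards) in day-6 filtered supernatants. Before this, HepAD38 cells were exposed to serial half-log compound dilutions without tetracycline, releasing viral expression; cultures kept at 37 °C, 5% CO2.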

HepAD38 cells = experiment: Cell viability assay (AlamarBlue); details: 0.3 μg/ml tetracycline, six days incubation, AlamarBlue
[1] = target: HBV core protein (C-terminal truncated core protein containing 149 amino acids of the N-terminal assembly domain) (UniProt P03146); experiment: Biochemical capsid assembly assay (fluorescence quenching); set-up: rows headed: Assembly Activity; other: BODIPY-FL labelled core protein, assembly started with NaCl, read after 6 min; details: read-out: Assembly Activity; BODIPY-FL labelled core protein, assembly started with NaCl, read after 6 min
Chain of HBV core protein (C-terminal truncated core protein containing 149 amino acids of the N-terminal assembly domain) (P03146 whole entry, the tested form may be a part): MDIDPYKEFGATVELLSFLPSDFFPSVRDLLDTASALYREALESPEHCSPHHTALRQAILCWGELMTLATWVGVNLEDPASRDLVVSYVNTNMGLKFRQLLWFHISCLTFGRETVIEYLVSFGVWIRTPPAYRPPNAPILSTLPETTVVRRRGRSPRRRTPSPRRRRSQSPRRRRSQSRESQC
Outline: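 N-terminal assembly domain (residues 1–149) plus C-terminal Cys150, E. coli-expressed, BODIPY-FL-maleimide labelled, used at 1.0–2.0 μM in 50 mM HEPES pH 7.5 with 0.5% DMSO. Assembly started with NaCl ([…]); fluorescence quenching (ex 477/em 525 nm) read after 6 min. 8-point compound series; EC50 by non-linear regression.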

[2] = Cell viability assay (AlamarBlue); details: human, HepAD38 cells
[3] = Hepatitis B virus, HePAD38, 144 h

Row | SMILES | EC50 (HBV) [µM] | CC50 (HepAD38 cells) [µM] | IC50 [1] [µM] | EC50 (HBV; [3]) [µM] | CC50 at 6 days [2] [µM]
1 | COCC1(N(C)C(=O)c2cnn3c2CN(C(=O)c2cc4ccccc4[nH]2)C(C)C3)CC1 (single isomer, unassigned) [Example 70, 5-(1H-indole-2-carbonyl)-N-[1-(methoxymethyl)cyclopropyl]-N,6-dimethyl-4H,5H,6H,7H-pyrazolo[1,5-a]pyrazine-3-carboxamide] | < 1 | > 10 | < 5 |  | 
2 | Cc1cc(F)cc2[nH]c(C(=O)N3CCn4ncc(C(=O)N5CCC(O)CC56CC6)c4C3)cc12 (stereo not drawn) [Example 121, 4-[5-(6-fluoro-4-methyl-1H-indole-2-carbonyl)-4H,5H,6H,7H-pyrazolo[1,5-a]pyrazine-3-carbonyl]-4-azaspiro[2.5]octan-7-ol] |  |  | < 5 | < 1 | > 10
3 | O=C(c1cc2ccccc2[nH]1)N1CCn2ncc(C(=O)N3CCC(F)(F)C3)c2C1 [Example 122, 2-[3-(3,3-difluoropyrrolidine-1-carbonyl)-4H,5H,6H,7H-pyrazolo[1,5-a]pyrazine-5-carbonyl]-1H-indole] |  |  | < 5 | < 1 | > 10
4 | O=C(NC1(CCOC(F)F)CCC1)c1cnn2c1CN(C(=O)c1cc3ccccc3[nH]1)CC2 [Example 123, N-{1-[2-(difluoromethoxy)ethyl]cyclobutyl}-5-(1H-indole-2-carbonyl)-4H,5H,6H,7H-pyrazolo[1,5-a]pyrazine-3-carboxamide] |  |  | < 5 | < 1 | > 10
5 | O=C(NC1(CCOC(F)F)CCCC1)c1cnn2c1CN(C(=O)c1cc3ccccc3[nH]1)CC2 [Example 124, N-{1-[2-(difluoromethoxy)ethyl]cyclopentyl}-5-(1H-indole-2-carbonyl)-4H,5H,6H,7H-pyrazolo[1,5-a]pyrazine-3-carboxamide] |  |  | < 5 | < 1 | > 10
6 | O=C(NC1(CCOC(F)F)CCOCC1)c1cnn2c1CN(C(=O)c1cc3ccccc3[nH]1)CC2 [Example 125, N-{4-[2-(difluoromethoxy)ethyl]oxan-4-yl}-5-(1H-indole-2-carbonyl)-4H,5H,6H,7H-pyrazolo[1,5-a]pyrazine-3-carboxamide] |  |  | < 5 | < 1 | > 10
7 | CN(C(=O)c1cnn2c1CN(C(=O)c1cc3ccccc3[nH]1)CC2)C1(CCOC(F)F)CCC1 [Example 126, N-{1-[2-(difluoromethoxy)ethyl]cyclobutyl}-5-(1H-indole-2-carbonyl)-N-methyl-4H,5H,6H,7H-pyrazolo[1,5-a]pyrazine-3-carboxamide] |  |  | < 5 | 1 to 10 | > 10
8 | CN(C(=O)c1cnn2c1CN(C(=O)c1cc3ccccc3[nH]1)CC2)C1(CCOC(F)F)CCCC1 [Example 127, N-{1-[2-(difluoromethoxy)ethyl]cyclopentyl}-5-(1H-indole-2-carbonyl)-N-methyl-4H,5H,6H,7H-pyrazolo[1,5-a]pyrazine-3-carboxamide] |  |  | < 5 | 1 to 10 | > 10
9 | CN(C(=O)c1cnn2c1CN(C(=O)c1cc3ccccc3[nH]1)CC2)C1(CCOC(F)F)CCOCC1 [Example 128] |  |  | < 5 | 1 to 10 | > 10
10 | CN(CCO)C(=O)c1cnn2c1CN(C(=O)c1cc3c(F)cc(F)cc3[nH]1)CC2 [Example 129, 5-(4,6-difluoro-1H-indole-2-carbonyl)-N-(2-hydroxyethyl)-N-methyl-4H,5H,6H,7H-pyrazolo[1,5-a]pyrazine-3-carboxamide] |  |  | < 5 | < 1 | > 10
11 | CN(C(=O)c1cnn2c1CN(C(=O)c1cc3ccccc3[nH]1)CC2)C1CCC1 [Example 133, N-cyclobutyl-5-(1H-indole-2-carbonyl)-N-methyl-4H,5H,6H,7H-pyrazolo[1,5-a]pyrazine-3-carboxamide] |  |  | < 5 | 1 to 10 | > 10
12 | O=C(NC1COC1)c1cnn2c1CN(C(=O)c1cc3ccccc3[nH]1)CC2 [Example 134, 5-(1H-indole-2-carbonyl)-N-(oxetan-3-yl)-4H,5H,6H,7H-pyrazolo[1,5-a]pyrazine-3-carboxamide] |  |  | < 5 | 1 to 10 | > 10
13 | CN(C(=O)c1cnn2c1CN(C(=O)c1cc3ccccc3[nH]1)CC2)C1COC1 [Example 135, 5-(1H-indole-2-carbonyl)-N-methyl-N-(oxetan-3-yl)-4H,5H,6H,7H-pyrazolo[1,5-a]pyrazine-3-carboxamide] |  |  | < 5 | < 1 | > 10
14 | CN(C(=O)c1cnn2c1CN(C(=O)c1cc3ccccc3[nH]1)CC2)C1(C)COC1 [Example 136, 5-(1H-indole-2-carbonyl)-N-methyl-N-(3-methyloxetan-3-yl)-4H,5H,6H,7H-pyrazolo[1,5-a]pyrazine-3-carboxamide] |  |  | < 5 | 1 to 10 | > 10
15 | CN(CC1(O)CCC1)C(=O)c1cnn2c1CN(C(=O)c1cc3ccccc3[nH]1)CC2 [Example 137, N-[(1-hydroxycyclobutyl)methyl]-5-(1H-indole-2-carbonyl)-N-methyl-4H,5H,6H,7H-pyrazolo[1,5-a]pyrazine-3-carboxamide] |  |  | < 5 | < 1 | > 10
16 | CN(C(=O)c1cnn2c1CN(C(=O)c1cc3ccccc3[nH]1)CC2)C1(C2OCCO2)CC1 [Example 138, N-[1-(1,3-dioxolan-2-yl)cyclopropyl]-5-(1H-indole-2-carbonyl)-N-methyl-4H,5H,6H,7H-pyrazolo[1,5-a]pyrazine-3-carboxamide] |  |  | < 5 | < 1 | > 10
17 | O=C(NC1(COC(F)F)CC1)c1cnn2c1CN(C(=O)c1cc3cc(F)c(F)cc3[nH]1)CC2 [Example 139, 5-(5,6-difluoro-1H-indole-2-carbonyl)-N-{1-[(difluoromethoxy)methyl]cyclopropyl}-4H,5H,6H,7H-pyrazolo[1,5-a]pyrazine-3-carboxamide] |  |  | < 5 | < 1 | > 10
18 | CN(C(=O)c1cnn2c1CN(C(=O)c1cc3ccccc3[nH]1)CC2)C1([C@H]2OC[C@H](N)CO2)CC1 [Example 141, 5-(1H-indole-2-carbonyl)-N-methyl-N-{1-[(2r,5r)-5-amino-1,3-dioxan-2-yl]cyclopropyl}-4H,5H,6H,7H-pyrazolo[1,5-a]pyrazine-3-carboxamide] |  |  | < 5 | < 1 | > 10
19 | CC1Cn2ncc(C(=O)N[C@H](C)C(F)(F)F)c2CN1C(=O)c1cc2ccccc2[nH]1 (stereo partly drawn) [Example 142, 5-(1H-indole-2-carbonyl)-6-methyl-N-[(2R)-1,1,1-trifluoropropan-2-yl]-4H,5H,6H,7H-pyrazolo[1,5-a]pyrazine-3-carboxamide] |  |  | < 5 | < 1 | > 10
20 | CC1Cn2ncc(C(=O)N[C@H](C)C(F)(F)F)c2CN1C(=O)c1cc2c(F)c(F)ccc2[nH]1 (stereo partly drawn) [Example 143, 5-(4,5-difluoro-1H-indole-2-carbonyl)-6-methyl-N-[(2R)-1,1,1-trifluoropropan-2-yl]-4H,5H,6H,7H-pyrazolo[1,5-a]pyrazine-3-carboxamide] |  |  | < 5 | < 1 | > 10
21 | Cc1c(F)ccc2[nH]c(C(=O)N3Cc4c(C(=O)N[C@H](C)C(F)(F)F)cnn4CC3C)cc12 (stereo partly drawn) [Example 144, 5-(5-fluoro-4-methyl-1H-indole-2-carbonyl)-6-methyl-N-[(2R)-1,1,1-trifluoropropan-2-yl]-4H,5H,6H,7H-pyrazolo[1,5-a]pyrazine-3-carboxamide] |  |  | < 5 | < 1 | > 10
22 | CC1Cn2ncc(C(=O)N[C@H](C)C(F)(F)F)c2CN1C(=O)c1cc2c(Cl)cccc2[nH]1 (stereo partly drawn) [Example 145, 5-(4-chloro-1H-indole-2-carbonyl)-6-methyl-N-[(2R)-1,1,1-trifluoropropan-2-yl]-4H,5H,6H,7H-pyrazolo[1,5-a]pyrazine-3-carboxamide] |  |  | < 5 | < 1 | > 10
23 | Cc1cc(F)cc2[nH]c(C(=O)N3Cc4c(C(=O)N[C@H](C)C(F)(F)F)cnn4CC3C)cc12 (stereo partly drawn) [Example 146, 5-(6-fluoro-4-methyl-1H-indole-2-carbonyl)-6-methyl-N-[(2R)-1,1,1-trifluoropropan-2-yl]-4H,5H,6H,7H-pyrazolo[1,5-a]pyrazine-3-carboxamide] |  |  | < 5 | < 1 | > 10
24 | CC1Cn2ncc(C(=O)N[C@H](C)C(F)(F)F)c2CN1C(=O)c1cc2cc(F)c(Cl)cc2[nH]1 (stereo partly drawn) [Example 147, 5-(6-chloro-5-fluoro-1H-indole-2-carbonyl)-6-methyl-N-[(2R)-1,1,1-trifluoropropan-2-yl]-4H,5H,6H,7H-pyrazolo[1,5-a]pyrazine-3-carboxamide] |  |  | < 5 | < 1 | > 10
25 | O=C(NC1(CCOC(F)F)COC1)c1cnn2c1CN(C(=O)c1cc3ccccc3[nH]1)CC2 [Example 148, N-{3-[2-(difluoromethoxy)ethyl]oxetan-3-yl}-5-(1H-indole-2-carbonyl)-4H,5H,6H,7H-pyrazolo[1,5-a]pyrazine-3-carboxamide] |  |  | < 5 | < 1 | > 10

Source: patent US20220363686A1 (AiCuris GmbH & Co. KG, priority 2018, published 2022)
